# Target: T1, MeCP2-TBL1 interaction (MeCP2-SmBiT / TBL1-LgBiT) (Mus musculus, UniProt Q9QXE7)
# T1 construct: expressed in transfected cells; crude lysate used as a cell-free assay
# T1 sequence (Q9QXE7 166-527): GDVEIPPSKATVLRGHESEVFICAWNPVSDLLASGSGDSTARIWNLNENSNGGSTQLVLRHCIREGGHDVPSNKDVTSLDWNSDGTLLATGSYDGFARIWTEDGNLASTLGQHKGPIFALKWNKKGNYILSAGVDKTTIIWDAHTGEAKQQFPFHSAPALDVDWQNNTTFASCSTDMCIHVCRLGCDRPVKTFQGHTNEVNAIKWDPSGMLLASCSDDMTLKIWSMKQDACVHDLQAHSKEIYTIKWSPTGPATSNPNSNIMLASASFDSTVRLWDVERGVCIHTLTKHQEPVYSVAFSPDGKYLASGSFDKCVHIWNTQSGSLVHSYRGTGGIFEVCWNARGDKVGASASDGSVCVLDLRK
# Assay: MeCP2-TBL1 NanoLuc luciferase complementation assay (cell-free, extracts of transfected HEK293 cells)
# Type: binding, human
# Settings: primary screen of Asinex library, single well per compound
# Source text: To facilitate the discovery of inhibitors of the interaction between MeCP2 and TBL1/TBLR1, we set out to devise a simple and scalable biochemical assay for measuring the interaction between these two proteins. We initially explored the possibility of screening compound libraries using a previously established fluorescence polarization assay that depends on purified recombinant TBL1/TBLR1[26]. […] The resulting luminescence signal depends on the affinity between the two interacting proteins of interest (Fig. 1A). This method was originally developed to allow for the interrogation of protein–protein interactions in vivo. However, in order to facilitate large scale screening of chemical libraries, we adapted the assay for use as a cell-free system.
# We fused the large N-terminal fragment of NanoLuc (LgBiT) to the C-terminus of the WD repeat domains of both TBL1 and TBLR1, and the small C-terminal fragment of NanoLuc (SmBiT) to the C-terminus of the C-terminal half of MeCP2 (Fig. 1B and C). This region of MeCP2 contains the NID (NCoR interaction domain)—the motif in MeCP2 that binds to TBL1/TBLR1.
# The AgeI-NotI restriction fragment (encoding EGFP) was then replaced with a codon optimized SmBiT sequence to yield the MeCP2-SmBiT expression plasmid. The TBL1-LgBiT expression vector was derived from a TBL1-mCherry plasmid[25] by replacing the AgeI-NotI restriction fragment (encoding mCherry) with a codon optimized LgBiT sequence. SmBiT-PRKACA and LgBiT-PRKAR2A plasmids are commercially available (Promega, N203 and N204).
# Cells were harvested after 24 h and cell pellets were stored at − 80 °C.
# In the screens described here, the lysate obtained from a single 15 cm plate was used for 2.5 384-well assay plates. NanoLuc substrate (furimazine) (Promega, N1110) was diluted 1000-fold in passive lysis buffer (Promega, E1941) and added 1:1 to the lysate. Screening libraries were purchased from Asinex[40] and ApexBio (FDA-approved Drug Library, L1021). Compounds were dispensed using an Echo acoustic dispenser and tested at a final concentration of 20 µM in a total assay volume of 20 μl in 384-well plate format. DMSO was added to each well at a final concentration of 0.2% (v/v) and wells containing only DMSO were used as negative control. After 30 min incubation at room temperature, luminescence was measured on a Tecan M1000 multi-mode plate reader. Raw luminescence reads from each well on each plate were normalized to the median luminescence signal for that plate. In the ApexBio screen, the scaled and normalized PKA signal for each compound was subtracted from the MeCP2-TBL1 signal for the same compound. After plate normalization the robust SSMD (SSMD*) was calculated as described elsewhere. A threshold of SSMD* ≥ 3 was applied for discerning primary hits.
# Assays were performed as described above except instead of a single concentration, a threefold serial dilution ranging from 60 to 0.03 μM was tested in triplicate for each of the compounds. Half-maximal inhibitory concentrations were calculated using global nonlinear regression by fitting the response data sets of all compounds simultaneously with a four-parameter logistic curve of log inhibitor concentration versus normalized luminescence using GraphPad Prism. During fitting, the maximum and minimum curve values were shared between the data sets.
row,Inhibition percent,Structure (SMILES)
1,-2.18,CC(C)(C)c1ccc2c(c1)N(CC(=O)N1CCCCC1CCNC(=O)c1ccccc1)C(=O)CO2 (stereo not shown) [BDE_33630290]
2,-2.55,CN(C)c1ncc(-c2cccc(C(N)=O)c2)c(C2CCCCN2CC(=O)NCc2ccccn2)n1 (stereo not shown) [BDE_33632669]
3,12.36,O=C(OCc1ccccc1)N1C[C@@H](O)[C@H](N(Cc2ccccc2)Cc2ccc(F)c(F)c2)C1 [BDE_33958860]
4,0.85,Cn1nc(C(F)(F)F)cc1C(=O)NCC[C@@H]1C[C@@H](S(=O)(=O)c2ccccc2)CCO1 [BDF_23100510]
5,-1.14,Cc1nc(C2CCN(C(=O)C3CCCCC3)C2)nc2c1CC(=O)N2CCCc1ccccc1 (stereo not shown) [BDF_25113060]
6,3.93,Cc1ccc(=O)n(CC(=O)N2CCOC3(CC=CCN(CCc4ccccc4)C3=O)C2)n1 (stereo not shown) [BDF_25862113]
7,-5.79,CC(=O)N[C@@]12CCN(S(=O)(=O)Cc3cccc(Cl)c3)C[C@@H]1[C@@H](c1ccccc1)N(C(C)=O)C2 [BDF_30361318]
8,-0.22,COCCOc1cccc(CN2[C@H](Cc3ccccc3F)C[C@@H]3NC(=O)CCCC[C@H]32)c1 [BDG_23917768]

# Same assay, conditions: primary screen of the Asinex library, sheet "Sargen output Asinex library", one well per compound
row,Inhibition percent,Structure (SMILES)
1,5.46%,COc1ccccc1CC(=O)N1CCCCC1c1ncc(Cc2ccccc2OC)o1 (stereo not shown) [BDE_33514655]
2,2.98%,COc1cccc(Cc2cnc(C3CCCCN3C(=O)Cc3ccccc3OC)o2)c1 (stereo not shown) [BDE_33514656]
3,-2.31%,COCc1nc2ccccc2n1CC(=O)N1CCCCC1C1CCN(C(=O)c2cnc(C)cn2)CC1 (stereo not shown) [BDE_33628056]
4,-3.22%,Cn1c(COCC(=O)N2CCCCC2c2cc(C(=O)NC3CCCC3)[nH]n2)nc2ccccc21 (stereo not shown) [BDE_33628409]
5,0.99%,Cc1ccc2ncnc(NCCC(=O)N3CCCCC3c3cc(C(=O)NC4CCCC4)[nH]n3)c2c1 (stereo not shown) [BDE_33629308]
6,-1.16%,Cc1cc(Oc2ccc(C(N)=O)cc2)nc(C2CCCCN2C(=O)CCCN2CCCCCC2)n1 (stereo not shown) [BDE_33629625]
7,-2.91%,O=C(NC1CCCC1)c1cc(C2CCCCN2C(=O)C2CCN(Cc3ccncc3)CC2)n[nH]1 (stereo not shown) [BDE_33629993]
8,1.05%,Cc1ccc2nc(COCC(=O)N3CCCC3c3ccnc(-c4cccc(Cl)c4)n3)[nH]c2c1 (stereo not shown) [BDE_33630067]
9,-1.50%,COc1ccc(S[C@@H]2CCO[C@@H](CCNC(=O)c3cc(OC)nc(OC)n3)C2)cc1 [BDF_22929100]
10,-3.67%,CCc1nnsc1C(=O)N(CC)[C@H]1CCO[C@@H](c2cccc(-c3cncnc3)c2)C1 [BDF_23117916]
11,-0.31%,CCN(Cc1cnn(-c2ccc(C)cc2)c1)[C@@H]1CCO[C@H](c2ccc(C(=O)N(C)C)cc2)C1 [BDF_24511039]
12,9.04%,Cc1ccccc1OCCC(=O)N1CCC(c2nc(N(C)C)ncc2-c2cccc(F)c2)C1 (stereo not shown) [BDF_24539058]
13,-1.37%,Cc1cc(C)nc(NCCC(=O)N2CCOC(c3cccc(Cc4ccccc4C)n3)C2)n1 (stereo not shown) [BDF_25252602]
14,1.99%,CNC(=O)c1ccc(-c2cccc(C3CN(CC(=O)NCc4ccccn4)CCO3)n2)cn1 (stereo not shown) [BDF_25324043]
15,3.88%,Cc1cccc(CN(CCc2c[nH]c3ccccc23)[C@@H]2CC[C@@H](NCc3ccccc3)[C@H]2O)c1 [BDF_33953574]

# Same assay, conditions: primary screen of the Asinex library, sheet "Sargen output Asinex library", one well per compound, Batch Ref. 1
row,Inhibition percent,Structure (SMILES)
1,-1.40%,O=C(c1cccc(-c2cncnc2)n1)N1CCCCC1c1ncc(Cc2cccc(F)c2)o1 (stereo not shown) [BDE_33514471]
2,1.71%,COc1cccc(Cc2cnc(C3CCCCN3C(=O)c3cccnc3-c3cncs3)o2)c1 (stereo not shown) [BDE_33514740]
3,-2.14%,CNc1nc(C2CCCCN2C(=O)CCCN(C)c2ccccc2)nc2c1CCN(C(C)=O)C2 (stereo not shown) [BDE_33628015]
4,-3.25%,O=C(CN1CCC(C2CCCCN2C(=O)C2CCN(Cc3ccccn3)CC2)CC1)N1CCCC1 (stereo not shown) [BDE_33629903]
5,0.26%,O=C(c1ccc(CN2CCOCC2)cc1)N1CCCC1c1ccnc(-c2cccc(Cl)c2)n1 (stereo not shown) [BDE_33630026]
6,4.13%,O=C(CCCC(=O)N1CCCCC1c1n[nH]cc1-c1ccc(C(F)(F)F)cc1)Nc1ccccn1 (stereo not shown) [BDE_33631892]
7,0.35%,CCCN1CCN(C(=O)c2c[nH]cn2)CC(Cc2ccccc2-c2ccccc2OC)C1=O (stereo not shown) [BDE_33754981]
8,18.11%,COc1ccccc1-c1ccc(CN2C[C@@H](c3ccccc3F)[C@@]3(CCCC(=O)N3)C2)cc1 [BDF_20367643]
9,2.56%,CC(=O)N1CCC(Cc2cc(-c3ccccc3)no2)(C(=O)N2CCC(C(C)(C)C)CC2)C1 (stereo not shown) [BDF_23076577]
10,1.76%,CC(=O)N1CCC(Cc2cc(-c3ccccc3)no2)(C(=O)Nc2ccccc2OC(C)C)C1 (stereo not shown) [BDF_23076638]
11,0.91%,CC(=O)N[C@@H]1CCO[C@H](c2ccc(NC(=O)C(c3ccccc3)c3ccccc3)cc2)C1 [BDF_23111075]
12,-0.43%,COCCNC(=O)c1sc2ncccc2c1C1CCN(Cc2ccc3ncccc3c2)C1 (stereo not shown) [BDF_24020930]
13,-4.29%,CCN(CC)C(=O)CN1CCOC(c2c(C(=O)N3CCOCC3)sc3ncccc23)C1 (stereo not shown) [BDF_24025276]
14,0.11%,Cc1cc(CCCC(=O)N2CCC(c3nc(N(C)C)ncc3-c3cncnc3)C2)ccc1F (stereo not shown) [BDF_24540183]
15,-2.18%,NC(=O)C1(Cc2cc(C3CCCCC3)no2)CCN(C(=O)CN2CCCCCC2=O)C1 (stereo not shown) [BDF_24693170]
16,-1.26%,Cc1nnc(Nc2cccc(C3CN(C(=O)Cn4c(C)cc5ccccc54)CCO3)n2)s1 (stereo not shown) [BDF_25244494]
17,-0.41%,Cc1cc(Nc2cccc(C3CN(C(=O)Cc4ccc5c(c4)CCCO5)CCO3)n2)nn1C (stereo not shown) [BDF_25246163]
18,6.97%,Cc1ccccc1Cc1cccc(C2CN(C(=O)c3nccc4ccccc34)CCO2)n1 (stereo not shown) [BDF_25249064]
19,-1.98%,O=C(CCc1[nH]nc2c1CCCC2)N1CCOC(c2cccc(Cc3ccc(F)cc3)n2)C1 (stereo not shown) [BDF_25251125]
20,7.95%,NC(=O)c1cccc(-c2cccc(C3CN(C(=O)CCc4cccc(Cl)c4)CCO3)n2)c1 (stereo not shown) [BDF_25272769]
21,0.68%,O=C(CC1CCCCC1)N1CCOC(c2nccnc2-c2cccc(C(F)(F)F)c2)C1 (stereo not shown) [BDF_25939482]
22,8.38%,Cc1cc(-c2ccc(N)nc2)cc(C2CN(C(=O)CCc3cccc(Cl)c3)CCO2)n1 (stereo not shown) [BDF_26216758]
23,-0.80%,Cc1cc(Cc2cccc(F)c2)cc(C2CN(C(=O)Cc3ccc(F)cc3)CCO2)n1 (stereo not shown) [BDF_26219393]
24,3.08%,Cc1cc(Cc2ccccc2F)cc(C2CN(C(=O)Cn3cnc4ccccc43)CCO2)n1 (stereo not shown) [BDF_26219772]
25,-3.76%,Cc1nc(C2(O)CCCN(Cc3ccncc3)CC2)sc1CCOc1ccccc1 (stereo not shown) [BDF_26909339]
26,32.27%,FC(F)(F)c1ccccc1Cc1cccc(C2CN(Cc3cccnc3)CCO2)n1 (stereo not shown) [BDF_27574784]
27,0.59%,CC(=O)Nc1ccc(C(=O)N2CCOC(c3cccc(Cc4ccccc4Cl)n3)C2)cc1 (stereo not shown) [BDF_27578760]
28,-0.37%,CC(=O)Nc1cccc([C@@H]2CN(CCc3ccc(F)cc3)C[C@]23CCCCC(=O)N3)c1 [BDF_30280717]
29,6.28%,COc1ccccc1-c1ccc(CN2[C@@H](c3ccccc3)C[C@@H]3NC(=O)CCC[C@H]32)cc1 [BDG_23930473]

# Source: paper PMC9995496, “A screen for MeCP2-TBL1 interaction inhibitors using a luminescence-based assay” (Scientific Reports, 2023)
